Where two headings read alike, the source gives them in different places.
Target: T1, Cdc7 (BEV coexpressed huCDC7/DBF4) (Homo sapiens, UniProt O00311)
T1 construct: made in house; host or cells: BEV (baculovirus expression vector) co-expression; insect cells are implied but no cell line is named
Assay: Cdc7 enzyme inhibition assay ([33P]ATP, biotinylated peptide substrate, FlashPlate)
Format: biochemical
Method: Cdc7 (BEV coexpressed huCDC7/DBF4) is prepared internally. Cdc7 assays are conducted as follows with final concentrations as listed. […] Reactions are quenched after 1 hr by the addition of 90 μL stop buffer (50 mM EDTA, 2M NaCl). […] (Ki) for exemplary compounds.

[1] = Table 3, enzyme inhibition data (Ki)

T1 sequence (O00311 whole entry): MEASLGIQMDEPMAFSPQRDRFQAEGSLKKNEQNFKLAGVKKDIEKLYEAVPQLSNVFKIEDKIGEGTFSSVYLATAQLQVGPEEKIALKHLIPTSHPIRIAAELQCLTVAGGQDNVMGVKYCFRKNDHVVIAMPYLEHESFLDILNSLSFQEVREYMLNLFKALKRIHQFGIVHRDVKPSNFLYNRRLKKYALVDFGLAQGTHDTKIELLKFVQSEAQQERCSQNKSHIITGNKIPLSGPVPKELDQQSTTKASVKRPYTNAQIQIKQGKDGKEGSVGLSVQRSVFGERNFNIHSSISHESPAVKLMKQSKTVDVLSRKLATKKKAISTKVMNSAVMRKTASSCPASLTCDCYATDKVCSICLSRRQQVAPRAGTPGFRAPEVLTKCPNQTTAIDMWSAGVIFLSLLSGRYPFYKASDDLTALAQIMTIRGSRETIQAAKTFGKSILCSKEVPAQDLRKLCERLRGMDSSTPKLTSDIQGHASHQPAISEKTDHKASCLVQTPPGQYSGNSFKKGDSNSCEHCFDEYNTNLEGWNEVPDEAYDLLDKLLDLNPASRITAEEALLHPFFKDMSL
T1 sequence (Q9UBU7 whole entry partner): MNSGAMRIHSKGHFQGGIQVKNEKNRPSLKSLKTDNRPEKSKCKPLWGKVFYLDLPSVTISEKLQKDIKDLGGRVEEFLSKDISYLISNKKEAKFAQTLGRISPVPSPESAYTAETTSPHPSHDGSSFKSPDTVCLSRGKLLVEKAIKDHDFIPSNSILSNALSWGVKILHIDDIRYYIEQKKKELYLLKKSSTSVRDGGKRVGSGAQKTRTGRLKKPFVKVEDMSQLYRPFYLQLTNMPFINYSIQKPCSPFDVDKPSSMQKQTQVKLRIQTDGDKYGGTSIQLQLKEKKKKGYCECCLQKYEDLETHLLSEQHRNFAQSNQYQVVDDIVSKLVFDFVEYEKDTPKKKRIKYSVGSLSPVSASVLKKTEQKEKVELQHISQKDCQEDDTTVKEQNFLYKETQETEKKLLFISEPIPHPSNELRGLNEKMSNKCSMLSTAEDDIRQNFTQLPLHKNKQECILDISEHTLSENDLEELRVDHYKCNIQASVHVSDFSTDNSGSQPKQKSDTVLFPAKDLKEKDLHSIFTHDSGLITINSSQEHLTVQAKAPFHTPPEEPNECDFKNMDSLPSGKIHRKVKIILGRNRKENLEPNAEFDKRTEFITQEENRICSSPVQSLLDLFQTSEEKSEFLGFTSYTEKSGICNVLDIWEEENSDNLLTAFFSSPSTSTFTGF

| Compound | Ki [nM] | Ki [1] [nM] |
| --- | --- | --- |
| CC(O)CNc1cc(-c2c[nH]c3ncccc23)cc(Cl)n1 (stereo not shown) [Example 39, 1-{[6-chloro-4-(1H-pyrrolo[2,3-b]pyridin-3-yl)pyridin-2-yl]amino}propan-2-ol] | 10 to 100 |  |
| CC(C)(CO)CNc1cc(-c2c[nH]c3ncccc23)cc(Cl)n1 [Example 40, 3-{[6-chloro-4-(1H-pyrrolo[2,3-b]pyridin-3-yl)pyridin-2-yl]amino}-2,2-dimethylpropan-1-ol] | 10 to 100 |  |
| OCCOCCNc1cc(-c2c[nH]c3ncccc23)cc(Cl)n1 [Example 41, 2-(2-{[6-chloro-4-(1H-pyrrolo[2,3-b]pyridin-3-yl)pyridin-2-yl]amino}ethoxy)ethanol] | 10 to 100 |  |
| N[C@H]1CC[C@H](Nc2nc(Cl)cc(-c3c[nH]c4ncccc34)n2)CC1 [Example 42, trans-N-[4-chloro-6-(1H-pyrrolo[2,3-b]pyridin-3-yl)pyrimidin-2-yl]cyclohexane-1,4-diamine] | < 10 |  |
| O[C@H]1CC[C@H](Nc2nc(Cl)cc(-c3c[nH]c4ncccc34)n2)CC1 [Example 44, Trans-4-{[4-chloro-6-(1H-pyrrolo[2,3-b]pyridin-3-yl)pyrimidin-2-yl]amino}cyclohexanol] | < 10 |  |
| Clc1cc(-c2c[nH]c3ncccc23)nc(NCc2ccccc2)n1 [Example 46, N-benzyl-4-chloro-6-(1H-pyrrolo[2,3-b]pyridin-3-yl)pyrimidin-2-amine] | 10 to 100 |  |
| OCC(Cc1ccccc1)Nc1nc(Cl)cc(-c2c[nH]c3ncccc23)n1 (stereo not shown) [Example 47, 2-{[4-chloro-6-(1H-pyrrolo[2,3-b]pyridin-3-yl)pyrimidin-2-yl]amino}-3-phenylpropan-1-ol] | 10 to 100 |  |
| COC[C@H](Cc1ccccc1)Nc1nc(Cl)cc(-c2c[nH]c3ncccc23)n1 [Example 48, (S)-4-chloro-N-(1-methoxy-3-phenylpropan-2-yl)-6-(1H-pyrrolo[2,3-b]pyridine-3-yl)pyrimidin-2-amine] | 10 to 100 |  |
| Clc1cc(-c2c[nH]c3ncccc23)nc(NC2CCCCC2)n1 [Example 49, 4-chloro-N-cyclohexyl-6-(1H-pyrrolo[2,3-b]pyridin-3-yl)pyrimidin-2-amine] | < 10 |  |
| CS(=O)(=O)N1CCC(Nc2cc(-c3c[nH]c4ncccc34)cc(Cl)n2)CC1 [Example 51, 6-chloro-N-[1-(methylsulfonyl)piperidin-4-yl]-4-(1H-pyrrolo[2,3-b]pyridin 3-yl)pyridin-2-amine] |  | < 10 |
| O=S(=O)(NC1CCC(Nc2cc(-c3c[nH]c4ncccc34)cc(Cl)n2)CC1)c1ccccc1 (stereo not shown) [Example 52, N-(4-{[6-chloro-4-(1H-pyrrolo[2,3-b]pyridin-3-yl)pyridin-2-yl]amino}cyclohexyl)benzenesulfonamide] |  | < 10 |
| O=S(=O)(Cc1ccccc1)NC1CCC(Nc2cc(-c3c[nH]c4ncccc34)cc(Cl)n2)CC1 (stereo not shown) [Example 53, N-(4-{[6-chloro-4-(1H-pyrrolo[2,3-b]pyridin-3-yl)pyridin-2-yl]amino}cyclohexyl)-1-phenylmethanesulfonamide] |  | < 10 |
| O=S(=O)(NC1CCC(Nc2cc(-c3c[nH]c4ncccc34)cc(Cl)n2)CC1)c1cccnc1 (stereo not shown) [Example 54, N-(4-{[6-chloro-4-(1H-pyrrolo[2,3-b]pyridin-3-yl)pyridin-2-yl]amino}cyclohexyl)pyridine-3-sulfonamide] |  | < 10 |
| CCCS(=O)(=O)NC1CCC(Nc2cc(-c3c[nH]c4ncccc34)cc(Cl)n2)CC1 (stereo not shown) [Example 55, N-(4-{[6-chloro-4-(1H-pyrrolo[2,3-b]pyridin-3-yl)pyridin-2-yl]amino}cyclohexyl)propane-1-sulfonamide] |  | < 10 |
| Clc1cc(-c2c[nH]c3ncccc23)cc(NCCN2CCOCC2)n1 [Example 56, 6-chloro-N-[2-(morpholin-4-yl)ethyl]-4-(1H-pyrrolo[2,3-b]pyridin-3-yl)pyridin-2-amine] |  | < 10 |
| Oc1cccc(CCNc2cc(-c3c[nH]c4ncccc34)cc(Cl)n2)c1 [Example 57, 3-(2-{[6-chloro-4-(1H-pyrrolo[2,3-b]pyridin-3-yl)pyridin-2-yl]amino}ethyl)phenol] |  | < 10 |
| CC(C)CNC1CCCC(Nc2cc(-c3c[nH]c4ncccc34)cc(Cl)n2)C1 (stereo not shown) [Example 58, N-[6-chloro-4-(1H-pyrrolo[2,3-b]pyridin-3-yl)pyridin-2-yl]-N′-(2-methylpropyl)cyclohexane-1,3-diamine] |  | < 10 |
| CN(C)C1CCCC(Nc2cc(-c3c[nH]c4ncccc34)cc(Cl)n2)C1 (stereo not shown) [Example 59, N′-[6-chloro-4-(1H-pyrrolo[2,3-b]pyridin-3-yl)pyridin-2-yl]-N,N-dimethylcyclohexane-1,3-diamine] |  | < 10 |
| O=C(NC1CCCC1)NC1CCC(Nc2cc(-c3c[nH]c4ncccc34)cc(Cl)n2)CC1 (stereo not shown) [Example 60, 1-(4-{[6-chloro-4-(1H-pyrrolo[2,3-b]pyridin-3-yl)pyridin-2-yl]amino}cyclohexyl)-3-cyclopentylurea] |  | < 10 |
| O=S(=O)(N[C@H]1CC[C@H](Nc2cc(-c3c[nH]c4ncccc34)cc(Cl)n2)CC1)C1CC1 [Example 61, N-(trans-4-{[6-chloro-4-(1H-pyrrolo[2,3-b]pyridin-3-yl)pyridin-2-yl]amino}cyclohexyl)cyclopropanesulfonamide] |  | < 10 |
| CCCNC(=O)NC1CCC(Nc2cc(-c3c[nH]c4ncccc34)cc(Cl)n2)CC1 (stereo not shown) [Example 62, 1-(4-{[6-chloro-4-(1H-pyrrolo[2,3-b]pyridin-3-yl)pyridin-2-yl]amino}cyclohexyl)-3-propylurea] |  | < 10 |
| O=C(N[C@H]1CC[C@H](Nc2cc(-c3c[nH]c4ncccc34)cc(Cl)n2)CC1)C1CC1 [Example 63, N-(trans-4-{[6-chloro-4-(1H-pyrrolo[2,3-b]pyridin-3-yl)pyridin-2-yl]amino}cyclohexyl)cyclopropanecarboxamide] |  | < 10 |
| CC(C)C(=O)NC1CCC(Nc2cc(-c3c[nH]c4ncccc34)cc(Cl)n2)CC1 (stereo not shown) [Example 64, N-(4-{[6-chloro-4-(1H-pyrrolo[2,3-b]pyridin-3-yl)pyridin-2-yl]amino}cyclohexyl)-2-methylpropanamide] |  | < 10 |
| O=C(NC1CCC(Nc2cc(-c3c[nH]c4ncccc34)cc(Cl)n2)CC1)c1ccccc1 (stereo not shown) [Example 65, N-(4-{[6-chloro-4-(1H-pyrrolo[2,3-b]pyridin-3-yl)pyridin-2-yl]amino}cyclohexyl)benzamide] |  | < 10 |
| O=C(Nc1ccccc1)NC1CCC(Nc2cc(-c3c[nH]c4ncccc34)cc(Cl)n2)CC1 (stereo not shown) [Example 66, 1-(4-{[6-chloro-4-(1H-pyrrolo[2,3-b]pyridin-3-yl)pyridin-2-yl]amino}cyclohexyl)-3-phenylurea] |  | < 10 |
| Clc1cc(-c2c[nH]c3ncccc23)cc(NC2CCCC(NCc3cccnc3)C2)n1 (stereo not shown) [Example 67, N-[6-chloro-4-(1H-pyrrolo[2,3-b]pyridin-3-yl)pyridin-2-yl]-N′-(pyridin-3-ylmethyl)cyclohexane-1,3-diamine] |  | < 10 |
| Clc1cc(-c2c[nH]c3ncccc23)cc(NC2CCCC(NC3CCC3)C2)n1 (stereo not shown) [Example 68, N-[6-chloro-4-(1H-pyrrolo[2,3-b]pyridin-3-yl)pyridin-2-yl]-1-N′-cyclobutylcyclohexane-1,3-diamine] |  | < 10 |
| O=C(NC1CCCC(Nc2cc(-c3c[nH]c4ncccc34)cc(Cl)n2)C1)C1CC1 (stereo not shown) [Example 69, N-(3-{[6-chloro-4-(1H-pyrrolo[2,3-b]pyridin-3-yl)pyridin-2-yl]amino}cyclohexyl)cyclopropanecarboxamide] |  | < 10 |

— patent publication US8435980B2 (AbbVie Inc., priority 2009, dated 2013)
